Laboratory results from patent publication US9428519B2, “Acylated derivative of homoharringtonine, preparation method therefor, and application thereof” (HANGZHOU BENSHENG PHARMACEUTICAL CO., LTD., priority 2011, dated 2016).
In brackets after ≈: the same amount, converted by molar mass.

What was measured:
[1] = system: MGC 803 (human gastric cancer cell); test: MTT growth inhibition of human solid tumor cells, 72 h; type: cell-based
Experimental: (§1) Human solid tumor cell lines: Hep-2 (laryngeal carcinoma), A549 (human lung cancer), CaES-17 (esophageal cancer cell), PC-3 (prostate cancer), CNE (nasopharyngeal carcinoma cell), and SK-OV-3 (ovarian cancer cell), all of which are purchased from China Center For Type Culture Collection; RKO (human colon adenocarcinoma cell), MGC 803 (human gastric cancer cell), MG63 (osteosarcoma) and U87 MG (malignant glioma cell), all of which are purchased from Fuxiang Bio-tech Co. Ltd., Shanghai, China; PANC-1 (pancreatic cancer), Huh7 (human liver cancer cell), Becap37 (human breast cancer cell), and Hela (human cervical cancer cell), all of which are donated by Cancer Research Institute of Zhejiang University, China.
(§2) Obtaining 4000 well-growing human solid tumor cells and inoculating them into wells of a 96-well cell culture plate. The culture medium is DMEM High Glucose cell culture medium containing 10% fetal bovine serum. The plate is placed in a carbon dioxide cell incubator (5% CO2) at 37° C. and incubated for 24 hours. After adding the homoharringtonine derivatives of different concentration and mixing uniformly, the plate is placed in a carbon dioxide cell incubator (5% CO2) at 37° C. and incubated for 72 hours. Then the viable cell concentration is determined by the MTT method and the cell viability (%) after drug treatment is calculated. In this experiment, the cell viability of control group (not treated with any compound) is set as 100%.

[2] = system: SK-OV-3 (ovarian cancer cell); test: as above; type: cell-based
Experimental: as §1, §2

[3] = system: PANC-1 (pancreatic cancer); test: as above; type: cell-based
Experimental: as §1, §2

[4] = system: Hela (human cervical cancer cell); test: as above; type: cell-based; conditions: MTT
Experimental: as §1, §2

[5] = system: CNE (nasopharyngeal carcinoma cell); test: as above; type: cell-based; conditions: MTT
Experimental: as §1, §2

[6] = system: Hep-2 (laryngeal carcinoma); test: as above; type: cell-based
Experimental: as §1, §2

A549 (human lung cancer) = test: as above; type: cell-based
Experimental: as §1, §2

MG63 (osteosarcoma) = test: as above; type: cell-based
Experimental: as §1, §2

PC-3 (prostate cancer) = test: as above; type: cell-based; conditions: MTT
Experimental: as §1, §2

[7] = system: Huh7 (human liver cancer cell); test: as above; type: cell-based
Experimental: as §1, §2

[8] = system: U87 MG (malignant glioma cell); test: as above; type: cell-based
Experimental: as §1, §2

[9] = system: Becap37 (human breast cancer cell); test: as above; type: cell-based
Experimental: as §1, §2

[10] = system: CaES-17 (esophageal cancer cell); test: as above; type: cell-based
Experimental: as §1, §2

[11] = system: RKO (human colon adenocarcinoma cell); test: as above; type: cell-based; conditions: MTT
Experimental: as §1, §2

[12] = system: H9 (acute lymphoblastic leukemia, ALL); test: MTT growth inhibition of leukemia cells, 72 h; type: cell-based, human; conditions: MTT
Source text: (§3) Leukemia cell lines: leukemia cell lines: K562/adr (drug-resistant, chronic myeloid leukemia, CML), NB4 (acute promyelocytic leukemia, AML), Kasumi-1 (acute myeloid leukemia M2 type, AML-M2), Jurkat (acute lymphoblastic leukemia, ALL), all of which are donated by Cancer Research Institute of Zhejiang University, China; and H9 (acute lymphoblastic leukemia, ALL), which is purchased from China Center for Type Culture Collection (CCTCC).
(§4) Reagents: The standard sample of homoharringtonine (HHT) is purchased from Taihua Natural Plant Pharmaceutical Co., Ltd., Shaanxi, China, the homoharringtonine derivatives of the present invention.
(§5) Obtaining 6000 well-growing leukemia cells and inoculating them into wells of a 96-well cell culture plate. The culture medium is the 1640 cell culture medium containing 10% fetal bovine serum. After adding the homoharringtonine derivatives of different concentrations and mixing uniformly, placing the plate in a carbon dioxide cell incubator (5% CO2) at 37° C. and incubated for 72 hours. Then the viable cell concentration is determined by the MTT method. In this experiment, the cell viability in control group (not treated with any compound) is set as 100%. On such basis, the cell viability (%) after treatment and the 50% inhibiting concentration of the compound for the leukemia cell growth at 72 hours (IC50 value of 72 hours) are calculated.

[13] = system: K562/adr (drug-resistant, chronic myeloid leukemia, CML); test: MTT growth inhibition of leukemia cells, 72 h; type: cell-based, human; conditions: MTT
Source text: as §3, §4, §5

[14] = system: NB4 (acute promyelocytic leukemia, AML); test: MTT growth inhibition of leukemia cells, 72 h; type: cell-based, human; conditions: MTT
Source text: as §3, §4, §5

[15] = system: Kasumi-1 (acute myeloid leukemia M2 type, AML-M2); test: MTT growth inhibition of leukemia cells, 72 h; type: cell-based, human
Source text: as §3, §4, §5

[16] = system: Jurkat (acute lymphoblastic leukemia, ALL); test: MTT growth inhibition of leukemia cells, 72 h; type: cell-based, human
Source text: as §3, §4, §5

[17] = system: RPMI8226 (multiple myeloma); test: MTT growth inhibition of multiple myeloma cells, 72 h; type: cell-based, human
Experimental: Multiple myeloma and lymphoma cell lines: RPMI8226 (multiple myeloma), purchased from Fuxiang Bio-tech Co. Ltd., Shanghai, China.
as §5

## COC(=O)C[C@@](CCCC(C)(C)OC(C)=O)(OC(C)=O)C(=O)O[C@@H]1C(OC)=C[C@]23CCCN2CCc2cc4c(cc2[C@H]13)OCO4 [BS-HH-001, 2,6-diacetylhomoharringtonine]
[1]; Homo sapiens, MGC-803
  IC50: 0.03 µg/mL (≈ 0.0476 µM)
  IC90: 0.66 µg/mL (≈ 1.05 µM)
[2]; Homo sapiens, SK-OV-3, MTT
  IC50: 0.12 µg/mL (≈ 0.191 µM)
  IC90: > 16 µg/mL
[3]; Homo sapiens, PANC-1, MTT
  IC50: 0.036 µg/mL (≈ 0.0572 µM)
  IC90: > 16 µg/mL
[4]; Homo sapiens, HeLa
  IC50: 0.026 µg/mL (≈ 0.0413 µM)
  IC90: > 16 µg/mL
[5]; Homo sapiens
  IC50: 0.062 µg/mL (≈ 0.0985 µM)
  IC90: > 16 µg/mL
[6]; Homo sapiens, HEp-2
  IC50: 0.026 µg/mL (≈ 0.0413 µM)
  IC90: > 16 µg/mL
A549 (human lung cancer); Homo sapiens, A549
  IC50: 0.03 µg/mL (≈ 0.0476 µM)
  IC90: > 16 µg/mL
MG63 (osteosarcoma); Homo sapiens, MG-63, MTT
  IC50: 0.02 µg/mL (≈ 0.0318 µM)
  IC90: 2.4 µg/mL (≈ 3.81 µM)
PC-3 (prostate cancer); Homo sapiens
  IC50: 0.029 µg/mL (≈ 0.0461 µM)
  IC90: > 16 µg/mL
[7]; Homo sapiens, Huh-7
  IC50: 0.016 µg/mL (≈ 0.0254 µM)
  IC90: 0.13 µg/mL (≈ 0.206 µM)
[8]; Homo sapiens, U-87 MG
  IC50: 0.018 µg/mL (≈ 0.0286 µM)
  IC90: 0.11 µg/mL (≈ 0.175 µM)
[9]; Homo sapiens
  IC50: 0.015 µg/mL (≈ 0.0238 µM)
  IC90: 14 µg/mL (≈ 22.2 µM)
[10]; Homo sapiens, CaEs17
  IC50: 0.062 µg/mL (≈ 0.0985 µM)
  IC90: > 16 µg/mL
[11]; Homo sapiens
  IC50: 0.007 µg/mL (≈ 0.0111 µM)
  IC90: 0.02 µg/mL (≈ 0.0318 µM)
[12]; Homo sapiens
  IC50: 0.02 µg/mL (≈ 0.0318 µM)
  IC90: 0.05 µg/mL (≈ 0.0794 µM)
[13]; Homo sapiens, K562/Adr
  IC50: 0.062 µg/mL (≈ 0.0985 µM)
  IC90: 1.18 µg/mL (≈ 1.87 µM)
[14]; Homo sapiens
  IC50: 0.01 µg/mL (≈ 0.0159 µM)
  IC90: 0.022 µg/mL (≈ 0.0349 µM)
[15]; Homo sapiens, Kasumi 1, MTT
  IC50: 0.006 µg/mL (≈ 0.00953 µM)
  IC90: 0.021 µg/mL (≈ 0.0333 µM)
[16]; Homo sapiens, Jurkat
  IC50: 0.012 µg/mL (≈ 0.0191 µM)
  IC90: ≥ 16 µg/mL
[17]
  anti-RPMI8226 (multiple myeloma) effectiveness: particularly effective
[17]; Homo sapiens, RPMI-8226, MTT
  IC50: 0.009 µg/mL (≈ 0.0143 µM)
  IC90: 0.12 µg/mL (≈ 0.191 µM)

## COC(=O)C[C@@](CCCC(C)(C)OC(=O)/C=C/c1ccco1)(OC(=O)/C=C/c1ccco1)C(=O)O[C@@H]1C(OC)=C[C@]23CCCN2CCc2cc4c(cc2[C@H]13)OCO4 [BS-HH-0022]
[1]
  IC50 MGC 803: 0.16 µg/mL (≈ 0.204 µM)
  IC90 MGC 803: 0.76 µg/mL (≈ 0.967 µM)
[2]; MTT
  IC50 SK-OV-3: 1.33 µg/mL (≈ 1.69 µM)
  IC90 SK-OV-3: >16 µg/mL
[3]; MTT
  IC50 PANC-1: 0.69 µg/mL (≈ 0.878 µM)
  IC90 PANC-1: 15.56 µg/mL (≈ 19.8 µM)
[4]
  IC50 Hela: 0.33 µg/mL (≈ 0.42 µM)
  IC90 Hela: 9.38 µg/mL (≈ 11.9 µM)
[5]
  IC50 CNE: 0.21 µg/mL (≈ 0.267 µM)
  IC90 CNE: 16 µg/mL (≈ 20.4 µM)
[6]
  IC50 Hep-2: 0.22 µg/mL (≈ 0.28 µM)
  IC90 Hep-2: >16 µg/mL
A549 (human lung cancer)
  IC50 A549: 0.23 µg/mL (≈ 0.293 µM)
  IC90 A549: >16 µg/mL
MG63 (osteosarcoma); MTT
  IC50 MG 63: 0.24 µg/mL (≈ 0.305 µM)
  IC90 MG 63: 3.25 µg/mL (≈ 4.14 µM)
PC-3 (prostate cancer)
  IC50 PC-3: 1.37 µg/mL (≈ 1.74 µM)
  IC90 PC-3: >16 µg/mL
[7]
  IC50 Huh7: 0.13 µg/mL (≈ 0.165 µM)
  IC90 Huh7: 0.99 µg/mL (≈ 1.26 µM)
[8]
  IC50 U87 MG: 0.16 µg/mL (≈ 0.204 µM)
  IC90 U87 MG: 0.59 µg/mL (≈ 0.751 µM)
[9]
  IC50 Becap37: 0.23 µg/mL (≈ 0.293 µM)
  IC90 Becap37: 11.14 µg/mL (≈ 14.2 µM)
[10]
  IC50 CaES-17: 0.61 µg/mL (≈ 0.776 µM)
  IC90 CaES-17: >16 µg/mL
[11]
  IC50 RKO: 0.044 µg/mL (≈ 0.056 µM)
  IC90 RKO: 0.35 µg/mL (≈ 0.445 µM)
[12]
  IC50 H9: 0.19 µg/mL (≈ 0.242 µM)
  IC90 H9: 0.4 µg/mL (≈ 0.509 µM)
[13]
  IC50 K562/adr: 0.41 µg/mL (≈ 0.522 µM)
  IC90 K562/adr: 1.84 µg/mL (≈ 2.34 µM)
[14]
  IC50 NB4: 0.08 µg/mL (≈ 0.102 µM)
  IC90 NB4: 0.25 µg/mL (≈ 0.318 µM)
[15]; MTT
  IC50 Kasumi-1: 0.063 µg/mL (≈ 0.0802 µM)
  IC90 Kasumi-1: 0.22 µg/mL (≈ 0.28 µM)
[16]
  IC50 Jurkat: 0.088 µg/mL (≈ 0.112 µM)
  IC90 Jurkat: 10.13 µg/mL (≈ 12.9 µM)
[17]; MTT
  IC50 RPMI8226: 0.12 µg/mL (≈ 0.153 µM)
  IC90 RPMI8226: 0.63 µg/mL (≈ 0.802 µM)
